# Results published in patent publication US20150216880A1, “INDUCING LACTATION IN NURSING FEMALES” (priority 2014, published 2015).
# Tested on: lactation in nursing females
# Assay: Topical cream applied to the nipple of a nursing mother; reported milk production
# Assay type: in vivo, human
# Conditions: nursing parent with child, 2 ml of Lubriderm Ultra cream with two percent, by volume, stanozolol, left on about two minutes, then washed off
# Experimental: In use, the cream is applied to a nipple prior to breast feeding. Generally, the cream is left on the nipple for about five to about twenty minutes and, usually, for about five to about fifteen minutes.
# It is then removed by washing. Then the mother is then ready to being nursing.
# A nursing parent having a child with the ability to achieve adequate lactation has applied a 2 ml quantity of a Lubriderm Ultra cream having two percent, by volume, stanozolol added thereto. The so-applied cream is left on for about two minutes. It is then washed off.
smiles,measurement,value
C[C@]12Cc3c[nH]nc3C[C@@H]1CC[C@@H]1[C@@H]2CC[C@@]2(C)[C@H]1CC[C@]2(C)O [stanozolol],milk production (reported by the mother),increase in milk production
